Experimental data from patent publication US20150064221A1, “COMPOUNDS HAVING IMMUNOMUDULATOR ACTIVITY” (priority 2012, published 2015).
“Also recorded” adds a separate entry of the source.

Experiments:
[1] = test system: enterobacterial antigen-reactive CD4+CD25− T cells; settings: in vitro; Mangano et al. 2008; cited from earlier work
[2] = test system: DNBS-induced colitis; settings: DNBS model; Mangano et al. 2008; cited from earlier work
[3] = test system: Purified CD4 T cells; test: Th17 T cell development from purified CD4 T cells; format: cell-based; settings: 10 mM
Procedure: Purified CD4 T cells (CD3^+ CD4^+ CD45RA^+ CD25^− HLA−DR^−) were incubated with 10 μg/ml of IL-2, 10 ng/mL of IL-1β, 10 ng/ml of IL-23, 1 ug/ml of anti-IL-4, 1 ug/mL of anti-IFNγ and anti-CD3/CD28 activation beads at a ratio of 1 bead per cell plus TGF-β (1 ng/mL). On day 6, the cells were incubated in the presence of 50 ng/ml of PMA and 500 ng/ml of ionomycin for 5 hours. The cells were analyzed for intracellular staining of IL-17A and IFNγ. (A) FACS analysis of CD4+ and IL-17+ cells with the percentage shown in the upper right quadrant. (B) Mean Fluorescent Intensity (MFI) of IL-17+ T cells. (C) Concentration of IL-17 in the media. VGX-1027 concentration was 10 mM.
Although inhibition of Th17-promoting cytokine production from DCs is likely to contribute to the decrease of Th17 T cell development, the potential limitation with this mechanism is that other cells may be compensating for the production of Th17-promoting cytokines. Therefore, the direct effect of VGX-1027 was tested on the differentiation of naïve CD4 T cells into Th17 T cells. In vitro generation of Th17 T cells requires TGF-β, IL-1β, IL-6, and either IL-21 or IL-23. Th17 T cells was assessed with purified CD4 T cells (CD3+ CD4+ CD45RA+ CD25− HLA−DR−) with or without VGX-1027.

[4] = test system: RIN-m5F and MIN6 insulinoma cell lines; test: Cytokine-stimulated insulinoma cell lines; format: cell-based
Procedure: Both results were determined 48 hours post stimulation, and VGX-1027 was added at the time of stimulation.
Insulinoma cell lines, which die following stimulation with either IL-1β/INF-γ or TNF-α/INF-γ, were used in this study. Specifically, cell lines RIN-m5F and MIN6 were treated with either IL-1β/INF-γ alone or IL-1β/INF-γ/VGX-1027, and TNF-α production, which is a consequence of stimulation with these factors, was measured.

[5] = test system: NF-kB; test: NF-kB activation in human macrophages; format: cell-based; settings: LPS induced, monocyte-derived human macrophages
[6] = biological target: COX-2 (Homo sapiens, UniProt P35354); test: COX-2 activity; format: biochemical
Chain of COX-2 (P35354 18-604): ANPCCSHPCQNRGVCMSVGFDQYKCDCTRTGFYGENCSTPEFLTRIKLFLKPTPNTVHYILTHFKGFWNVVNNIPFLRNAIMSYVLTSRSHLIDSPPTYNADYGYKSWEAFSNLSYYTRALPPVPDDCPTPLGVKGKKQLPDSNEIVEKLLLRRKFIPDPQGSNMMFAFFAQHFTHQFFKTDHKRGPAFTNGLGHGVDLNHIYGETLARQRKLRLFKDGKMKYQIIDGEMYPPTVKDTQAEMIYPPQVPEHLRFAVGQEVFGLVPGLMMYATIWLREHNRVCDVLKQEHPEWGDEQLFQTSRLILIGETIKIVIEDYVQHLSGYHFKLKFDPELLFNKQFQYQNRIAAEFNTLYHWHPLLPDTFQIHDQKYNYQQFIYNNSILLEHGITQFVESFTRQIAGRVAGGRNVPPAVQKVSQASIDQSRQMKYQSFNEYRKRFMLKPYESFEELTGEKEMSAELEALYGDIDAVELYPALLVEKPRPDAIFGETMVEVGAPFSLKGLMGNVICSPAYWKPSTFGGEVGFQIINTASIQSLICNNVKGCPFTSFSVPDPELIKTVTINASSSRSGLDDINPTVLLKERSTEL
Procedure: The highest plasma concentrations generally occurred in 1-2 hours. […] The highest level of inhibition was ˜35% for 2C19 at a 30 μM concentration. […] Lastly, VGX-1027 is stable in human liver S9 fractions (with phase 1 and 2 cofactors) with t1/2>90 minutes, which indicates a low likelihood of metabolism in the liver.

[7] = test system: MLD-STZ-induced diabetes; test: Streptozotocin (MLD-STZ) induced diabetes; format: in vivo, CBA/H mice
Procedure: (A) Euglycaemic female 12 week old NOD mice were treated intraperitoneally with either 20 mg/kg bw VGX-1027 or its vehicle six times a week from the 12th until the 25th week of age. An additional control group of mice was left untreated. Each group consisted of 16 mice. The data are representative of two independent experiments that were merged because of interstudies variability lower than 10%. Statistical analysis was performed by Logrank (Mantel-Cox). (B) Plasma glucose levels in control CBA/H mice receiving STZ (40 mg/kg/day, for 5 consecutive days) in conjunction with 12 daily intreperitoneum injections of vehicle (STZ), or in mice treated with STZ and VGX-1027 given as a continuous 12-day treatment. 100 mg/kg bw of VGX-1027, administered orally from day −1 to day +10. Results from a representative experiment are presented as mean±SD for seven to eight mice per group. *p<0.05 refers to treatment with MLD-STZ.
Both intraperitoneal and oral treatment with VGX-1027 suppressed clinical development of diabetes. Clinical development of diabetes was attempted to be induced in CBA/H mice by multiple low doses of streptozotocin. CBA/H mice developed sustained hyperglycemia over a 2-week period following MLD-STZ injections. As expected, CBA/H control mice treated with the vehicle of VGX-1027 either orally or intraperitoneally developed diabetes with sustained hyperglycemia developed over a 2-week period following MLD-STZ injections.
The effect of VGX-1027 with STZ-induced diabetes was also evaluated. STZ is a DNA alkylating agent with particular toxicity to pancreatic β cells. VGX-1027 was administered orally for 12 days, and STZ was administered into mice for 5 consecutive days starting a day after VGX-1027 treatment.

In the case of `O=C(O)CC1CC(c2ccccc2)=NO1` (stereo not drawn) [VGX-1027, 3-phenyl-4,5-dihydro-5-isoxazoleacetic acid], the “proliferation of enterobacterial antigen-reactive CD4+CD25− T cells” value [1] is given as “inhibits”, the “colonic production of proinflammatory cytokines (IL-1β, TNF-α, IL-12p70, IFN-γ)” value [2] is given as “reduced colonic production” and the “IL-17 expressed in a Th17 T cell (MFI)” value [3] is given as “decrease”. For the same molecule, the “IL-17 in the culture media” value [3] was “decrease”, the TNF-α production ([4]; IL-1β/INF-γ stimulation, both cell types, 48 hours) was “significantly repressed” and the cell viability ([4]; IL-1β/INF-γ with co-treatment, 48 hours) was “over 60%”. The “cell viability with exogenous rTNF-α” value ([4]; IL-1β/INF-γ/TNF-α) was “prevented the protective effect”, the “DNA binding of NF-kB” value [5] was “powerfully inhibits in a dose-dependent fashion” and the “inhibition of COX-2 activity” value [6] was “no significant inhibition”. The “diabetogenic effect of MLD-STZ” value ([7]; intraperitoneally) was “significantly reduced”, the development of hyperglycemia ([7]; orally (100 mg/kg, 12 days), 100 mg/kg) was “did not develop hyperglycemia; also recorded: significantly reducing” and the “infiltration of immune cells, atrophy and loss of islet margins in pancreas” value ([7]; orally, 12 days) was “prevented”.
